Assay results taken from patent US7417061B2, “Oxadiazole compounds and compositions for delivering active agents” (MHR Institutional Partners IIA LP, priority 1999, dated 2008).

assay: Oral delivery of rhGH with delivery agent compound in rats; serum rhGH by immunoassay; type: in vivo, rat; settings: male Sprague-Dawley rats, compound 200 mg/kg, rhGH 3 mg/kg, 1 ml/kg, pooled samples (except compound 1)
Method: Oral gavage (PO) and/or intracolonic (IC) dosing solutions of delivery agent compound and rhGH in phosphate buffer were prepared. A solution of the compound was made either with the sodium salt of the compound or by converting the free acid to its sodium salt. Typically, a solution of the compound was prepared in phosphate buffer and stirred, adding one equivalent of sodium hydroxide (1.0 N) when making the sodium salt. The final dosing solutions were prepared by mixing the compound solution with an rhGH stock solution (15 mg rhGH/ml) and diluting to the desired volume (usually 3.0 ml). The compounds and rhGH dose amounts are listed below in Table 3.
The typical dosing and sampling protocols were as follows. Male Sprague-Dawley rats weighing between 200-250 g were fasted for 24 hours and administered ketamine (44 mg/kg) and chlorpromazine (1.5 mg/kg) 15 minutes prior to dosing. A dosing group of five rats was administered one of the dosing solutions. For oral gavage (PO), an 11 cm Rusch 8 French catheter was adapted to a 1 ml syringe with a pipette tip. The syringe was filled with dosing solution by drawing the solution through the catheter, which was then wiped dry. The catheter was placed down the esophagus leaving 1 cm of tubing past the rat's incisors. Solution was administered by pressing the syringe plunger. For intracolonic (IC) dosing, a 7.5 cm Rusch catheter tube (French 8 or 6) was adapted to a syringe with an Eppendorf pipette tip. The syringe was filled with the dosing solution by drawing the solution through the catheter tube. The catheter tube was wiped dry. K-Y jelly was applied to the tip, avoiding contact with the eye of the tube, and the tube was inserted into the colon through the anus until the tube was no longer visible. The solution was injected by pressing the syringe plunger, and the tube was removed.
Blood samples were collected serially from the tail artery, typically at 0, 15, 30, 45, 60 and 90 minutes after oral administration and 0, 10, 20, 30, 60 and 90 minutes after IC administration. The five samples from each time period were pooled (except for where compound 1 was dosed). Serum rHGH concentrations were quantified by an rHGH immunoassay test kit (Kit # K1F4015 from Genzyme Corporation Inc., Cambridge, Mass.). Previous studies indicated baseline values of about zero.
The maximum concentration for each group and the area under the curve (AUC), when available, are reported below in Table 3.

| SMILES | Mean Peak Serum [rhGH] [ng/mL] |
| --- | --- |
| O=C(O)CCCCCCc1nnc(-c2cc(Cl)cc(Cl)c2O)o1 [Compound 6] | 0 |
| Cc1nnc(CCCCCCC(=O)O)o1 [Compound 12] | 0 |
| O=C(O)CCCCCCc1nnc(-c2cc(Cl)ccc2O)o1 [Compound 5] | 14.64 |
| COc1ccc(-c2nnc(CCCCC(=O)O)o2)c(O)c1 [Compound 9] | 14.25 |
